Results reported in paper PMC7803973, “Structural basis of malaria parasite phenylalanine tRNA-synthetase inhibition by bicyclic azetidines” (Nature Communications, 2021).

Biological target: T1, PvcFRS (Plasmodium vivax, UniProt A5K9S0)
T1 construct: Full-length PvcFRS was also purified according to the same protocol; vector-encoded tag of pETM11 (own knowledge: N-terminal His6 with TEV site); Ni-NTA purification; made in house; host or cells: E. coli strain B834
Test: Malachite green aminoacylation enzyme inhibition assay
Format: biochemical
Description: These were done using malachite green assay as per earlier published reports[1],[6]. Briefly, the reaction was performed for 100 µM ATP, 50 µM L-phenylalanine and 100 nM recombinant PheRS enzymes (Pf, Pv, Hs, Pf mutant (L550V)) in a buffer containing 30 mM HEPES (pH 7.5), 150 mM, NaCl, 30 mM KCl, 50 mM, MgCl2, 1 mM DTT, and 2 U/ml E. coli inorganic pyrophosphatase (NEB) at 37 °C. Enzymatic reactions (50 μl total volume) were performed in clear, flat-bottomed, 96-well plates (Costar 96-well standard microplates). The reaction mixture was incubated for 2 h at 37 °C. The reaction was stopped by adding 12.5 μl of malachite green solution to the reaction mixture and levels of inorganic phosphate (Pi) were detected after incubation of 5 min at room temperature. Absorbance was the measured at 620 nm using a Spectramax M2 (Molecular Devices). Reactions without FRS enzyme were performed as background controls, values of which were subtracted from the reactions with enzyme. BRD1389 was added to our aminoacylation assay reaction buffer in varying concentrations ranging from 0.1 nM to 10,000 nM. The IC50 value for the data is shown for three replicates as the mean ± SD.

T1 sequence (A5K464 whole entry): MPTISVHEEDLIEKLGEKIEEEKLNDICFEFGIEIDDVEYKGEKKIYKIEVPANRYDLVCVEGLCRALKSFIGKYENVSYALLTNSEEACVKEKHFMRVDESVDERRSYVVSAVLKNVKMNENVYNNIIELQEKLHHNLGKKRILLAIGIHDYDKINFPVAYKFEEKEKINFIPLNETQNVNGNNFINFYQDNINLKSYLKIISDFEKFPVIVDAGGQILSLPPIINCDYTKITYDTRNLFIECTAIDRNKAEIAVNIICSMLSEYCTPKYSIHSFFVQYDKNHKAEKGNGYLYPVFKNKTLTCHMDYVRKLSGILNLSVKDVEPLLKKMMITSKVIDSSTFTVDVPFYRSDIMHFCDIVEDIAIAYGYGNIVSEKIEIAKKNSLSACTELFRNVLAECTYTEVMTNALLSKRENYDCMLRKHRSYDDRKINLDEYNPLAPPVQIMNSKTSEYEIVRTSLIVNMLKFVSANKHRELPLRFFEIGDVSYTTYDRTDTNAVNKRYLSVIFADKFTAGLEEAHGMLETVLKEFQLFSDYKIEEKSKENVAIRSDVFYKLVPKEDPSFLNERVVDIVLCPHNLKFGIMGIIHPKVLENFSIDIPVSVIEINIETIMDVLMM
T1 sequence (A5K9S0 whole entry): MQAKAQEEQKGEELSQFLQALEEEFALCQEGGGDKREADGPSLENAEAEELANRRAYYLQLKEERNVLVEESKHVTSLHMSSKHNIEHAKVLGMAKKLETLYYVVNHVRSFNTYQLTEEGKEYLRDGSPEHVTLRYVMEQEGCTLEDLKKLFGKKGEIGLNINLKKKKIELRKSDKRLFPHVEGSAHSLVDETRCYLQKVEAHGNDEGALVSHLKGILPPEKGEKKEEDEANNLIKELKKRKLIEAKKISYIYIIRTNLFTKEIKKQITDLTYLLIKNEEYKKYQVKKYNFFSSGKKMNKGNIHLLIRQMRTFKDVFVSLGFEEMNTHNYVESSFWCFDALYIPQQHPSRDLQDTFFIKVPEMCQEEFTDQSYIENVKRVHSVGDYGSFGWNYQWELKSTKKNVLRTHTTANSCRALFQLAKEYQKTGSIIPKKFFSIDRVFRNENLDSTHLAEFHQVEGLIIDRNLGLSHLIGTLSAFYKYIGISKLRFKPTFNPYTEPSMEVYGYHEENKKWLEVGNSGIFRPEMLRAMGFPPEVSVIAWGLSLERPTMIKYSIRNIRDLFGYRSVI

Compound `COC[C@@H]1[C@H](c2ccc(C#Cc3ccccc3)cc2)[C@@H]2CN(C(=O)Nc3ccc(OC4CC4)cc3)C[C@@H](O)[C@@H](O)CN12` [BRD1389] has a remaining activity at 1 pM (2 h, read-out: % Enzyme Activity) of 100%, an IC50 (Pv cFRS aminoacylation activity) of 25 ± 1 nM and a remaining activity at 0.0001 µM (PvcFRS, BRD1389 0.0001 uM) of 95.4%. For the same compound, the remaining activity at 0.001 µM (PvcFRS, BRD1389 0.001 uM) was 86.2%, the remaining activity at 0.01 µM (PvcFRS, BRD1389 0.01 uM) was 60.7% and the remaining activity at 0.1 µM (PvcFRS, BRD1389 0.1 uM) was 20.7%. It also gave a remaining activity at 1 µM (PvcFRS, BRD1389 1 uM) of 8.61%, a remaining activity at 10 µM (PvcFRS, BRD1389 10 uM) of 2.17% and a remaining activity at 100 µM (PvcFRS, BRD1389 100 uM) of 0%.
